Experimental findings from US20260274814A1, “THIENYL COMPOUNDS FOR THE TREATMENT OF A CENTRAL NERVOUS SYSTEM DISEASE OR DISORDER” (Coreterra Therapeutics, Inc., priority 2023, published 2026) are described below.

This test deals with mice. The test is described as follows: Neuropharmacological Assay (SmartCube): automated behavioral signature of compound-treated mice compared with a database of reference drug classes. The class given is in vivo. Particulars: for minimal effective dose: Mus musculus, ip; for minimal effective dose / MED / MED (minimal effective dose): i.p., that dose is shown. The essentials:
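Probabilities reflect how closely the digitally recorded behavioural signature at 3.0 mg/kg i.p. matched each reference class (antipsychotic, anxiolytic, antidepressant etc.). Dosing occurred 15 min before testing. Minimal effective dose was the dose giving 45% or more total activity.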

Setting [1] is: minimal effective dose: dose having 45% or more total activity in SmartCube, if only one dose tested, read-out: MED.
Where [2] appears, read: SmartCube class probability, 3.0 mg/kg i.p., 15 min before test.
The mark [3] stands for this setting: SmartCube probability class, 3.0 mg/kg dose, i.p. 15 min before the behavioral test.
[4] abbreviates: SmartCube probability class, 3.0 mg/kg dose, i.p. 15 min before the behavioral test, hydrochloride, 3 mg/kg.
Where [5] appears, read: SmartCube class probability, 3.0 mg/kg i.p., 15 min before test, hydrochloride, 3 mg/kg.
Where [6] appears, read: minimal effective dose: dose having 45% or more total activity in SmartCube, if only one dose tested, hydrochloride.
The mark [7] stands for this setting: dose having 45% or more total activity in SmartCube, if only one dose was tested, read-out: MED (minimal effective dose).
[8] abbreviates: probability that activity matches this class of agents, 3.0 mg/kg i.p., 15 min before test.
Where [9] appears, read: probability that activity matches this class of agents, 3.0 mg/kg i.p., 15 min before test, hydrochloride, 3 mg/kg.
[10] abbreviates: probability that activity matches this class of agents, 3.0 mg/kg i.p., 15 min before test, 3 mg/kg.

Structures can show the parent of a compound that is named as a salt. Where two headings read alike, the source gives them in different places.

For the compound `NC1COc2c(C3CC3)csc2C1` (centres unmarked) [Compound 229, 3-cyclopropyl-6,7-dihydro-5H-thieno[3,2-b]pyran-6-amine hydrochloride], the minimal effective dose under setting [1] was found to be 3 mg/kg. Moreover, under setting [2], the AG result is on record as “ND (^ <4%)”, the AN entry is “ND (^ <4%)”, the AP entry is on record as “ND (^ <4%)” and the AX entry is on record as “++++ (≥74%)”. Moreover, under setting [2], the CE result is on record as “ND (^ <4%)”, the HL result is given as “+ (≥4%)”, the MS result is “ND (^ <4%)” and the PS entry was “ND (^ <4%)”. Further, under setting [2], the SH result is given as “ND (^ <4%)” and the UK result is listed as “ND (^ <4%)”.
Consider `CNC1COc2c(C(F)(F)F)csc2C1` (single isomer, unassigned) [Compound 310, N-methyl-3-(trifluoromethyl)-6,7-dihydro-5H-thieno[3,2-b]pyran-6-amine hydrochloride], for which, under setting [3], the AD entry is “ND (^ <4%)”, the AG result was “ND (^ <4%)”, the AN result is “ND (^ <4%)” and the AP entry is reported as “ND (^ <4%)”. Under setting [3], the AX result was “ND (^ <4%)”, the CE entry is given as “ND (^ <4%)”, the HL result was “ND (^ <4%)” and the MS result is “ND (^ <4%)”. Also, under setting [3], the PS entry is recorded as “ND (^ <4%)” and the SH entry is reported as “ND (^ <4%)”. Besides, the UK result under setting [4] is “++ (≥24%)”. Also, the MED (minimal effective dose: dose having 45% or more total activity in SmartCube, if only one dose was tested, hydrochloride) is on record as over 3 mpk.
Consider `CNC1CCc2scc(C#N)c2C1` (single isomer, unassigned) [Compound 174, 5-(methylamino)-4,5,6,7-tetrahydrobenzothiophene-3-carbonitrile hydrochloride], for which, under setting [2], the AD result is given as “ND (^ <4%)”, the AG entry is reported as “ND (^ <4%)”, the AN result was “ND (^ <4%)” and the AP result is reported as “ND (^ <4%)”. In addition, under setting [2], the CE result is “ND (^ <4%)”, the HL result is “ND (^ <4%)”, the MS result is “ND (^ <4%)” and the PS result is “ND (^ <4%)”. Also, under setting [2], the SH result is “+ (≥4%)” and the UK result was “ND (^ <4%)”. Moreover, under setting [5], the AX entry is “ND (^ <4%)”. Besides, under setting [6], the MED is listed as 1 mpk.
For the compound `CCc1csc2c1CC(N)CC2` (single isomer, unassigned) [Compound 280, 3-ethyl-4,5,6,7-tetrahydrobenzothiophen-5-amine hydrochloride], under setting [3], the AD entry is “ND (^ <4%)”, the AG result is “ND (^ <4%)”, the AN result is recorded as “ND (^ <4%)” and the AP entry is listed as “ND (^ <4%)”. Under setting [3], the AX entry is listed as “ND (^ <4%)”, the CE entry is given as “ND (^ <4%)”, the HL entry is “ND (^ <4%)” and the MS entry is given as “ND (^ <4%)”. Under setting [3], the PS entry is given as “ND (^ <4%)” and the SH entry was “ND (^ <4%)”. Under setting [4], the UK entry is “+++ (≥49%)”. The compound also gave an MED (minimal effective dose: dose having 45% or more total activity in SmartCube, if only one dose was tested) of 3 mpk.
Turning to `CNC1CCc2c(Cl)csc2C1` (centres unmarked) [Compound 94, 3-chloro-N-methyl-4,5,6,7-tetrahydrobenzothiophen-6-amine hydrochloride], the minimal effective dose under setting [7] is 3 mg/kg. Under setting [8], the AD entry is “ND (^ <4%)”, the AG entry is reported as “ND (^ <4%)”, the AN entry is recorded as “ND (^ <4%)” and the AP entry is “++++ (≥74%)”. In addition, under setting [8], the AX entry was “ND (^ <4%)”, the CE entry is “ND (^ <4%)”, the HL entry is recorded as “ND (^ <4%)” and the MS result was “ND (^ <4%)”. Under setting [8], the PS entry is “ND (^ <4%)”, the SH result was “ND (^ <4%)” and the UK entry was “ND (^ <4%)”.
For `CNC1CCc2cc(C)sc2C1` (single isomer, unassigned) [Compound 29, N, 2-dimethyl-4,5,6,7-tetrahydrobenzothiophen-6-amine hydrochloride], the “MED (minimal effective dose)” value (dose having 45% or more total activity in SmartCube, if only one dose was tested, hydrochloride) is listed as 1.0 mpk. Further, under setting [8], the AG entry is listed as “ND (^ <4%)”, the AN result is “ND (^ <4%)”, the AX entry is given as “++ (≥24%)” and the CE entry is given as “ND (^ <4%)”. Moreover, under setting [8], the HL result is “ND (^ <4%)”, the MS result is recorded as “ND (^ <4%)”, the PS entry is listed as “ND (^ <4%)” and the SH entry is on record as “ND (^ <4%)”. Moreover, under setting [9], the AD entry was “ND (^ <4%)”, the AP result is reported as “+++ (≥49%)” and the UK result is on record as “+ (≥4%)”.
As for `CNC1CCc2c(C(F)(F)F)sc(C)c2C1` (single isomer, unassigned; enantiomer 1) [Compound 106, N, 3-dimethyl-1-(trifluoromethyl)-4,5,6,7-tetrahydro-2-benzothiophen-5-amine hydrochloride enantiomer 1], the “MED (minimal effective dose)” value (dose having 45% or more total activity in SmartCube, if only one dose was tested) amounted to 3 mpk. Moreover, under setting [8], the AG result is listed as “ND (^ <4%)”, the AN result was “ND (^ <4%)”, the AP result is reported as “ND (^ <4%)” and the AX entry is listed as “ND (^ <4%)”. For the same compound, under setting [8], the CE entry is recorded as “ND (^ <4%)”, the HL entry is reported as “ND (^ <4%)”, the MS result is listed as “ND (^ <4%)” and the PS result is “ND (^ <4%)”. Besides, the SH entry under setting [8] is listed as “ND (^ <4%)”. In addition, under setting [10], the AD entry is listed as “+ (≥4%)” and the UK result was “++ (≥24%)”.
With `CNC1CCc2scc(Br)c2C1` (centres unmarked) [Compound 108, 3-bromo-N-methyl-4,5,6,7-tetrahydrobenzothiophen-5-amine hydrochloride], under setting [7], the minimal effective dose is under 3 mg/kg. Moreover, under setting [8], the AD result is on record as “ND (^ <4%)”, the AG entry is listed as “ND (^ <4%)”, the AN result was “ND (^ <4%)” and the AP result is reported as “++++ (≥74%)”. Under setting [8], the AX result is “ND (^ <4%)”, the CE result is “ND (^ <4%)”, the HL result is “ND (^ <4%)” and the MS result is given as “ND (^ <4%)”. Besides, under setting [8], the PS entry is “ND (^ <4%)”, the SH entry was “ND (^ <4%)” and the UK entry is “ND (^ <4%)”.
Regarding `NC1CCc2sc(Cl)c(Cl)c2C1` (centres unmarked) [Compound 219, 2,3-dichloro-4,5,6,7-tetrahydrobenzothiophen-5-amine hydrochloride], the minimal effective dose under setting [1] is over 3 mg/kg. In addition, under setting [2], the AD entry is given as “ND (^ <4%)”, the AG result was “ND (^ <4%)”, the AN entry is recorded as “ND (^ <4%)” and the AP result is “ND (^ <4%)”. Under setting [2], the AX result is recorded as “ND (^ <4%)”, the CE result was “ND (^ <4%)”, the HL entry was “ND (^ <4%)” and the MS entry is given as “ND (^ <4%)”. Besides, under setting [2], the PS entry is recorded as “ND (^ <4%)”, the SH result is listed as “ND (^ <4%)” and the UK result was “++ (≥24%)”.
Regarding `CNC1CCCc2cscc2C1` (single isomer, unassigned) [Compound 169, N-methyl-5,6,7,8-tetrahydro-4H-cyclohepta[c]thiophen-5-amine hydrochloride], under setting [2], the AD result is given as “ND (^ <4%)”, the AG entry is recorded as “ND (^ <4%)”, the AN entry is reported as “ND (^ <4%)” and the CE result was “ND (^ <4%)”. Besides, under setting [2], the HL result is on record as “ND (^ <4%)”, the MS entry was “ND (^ <4%)”, the PS entry was “ND (^ <4%)” and the SH entry is on record as “ND (^ <4%)”. Also, under setting [5], the AP entry is reported as “ND (^ <4%)”, the AX result is “ND (^ <4%)” and the UK entry is reported as “++ (≥24%)”. The compound also gave an MED under setting [6] of 3 mpk.
